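All cell lines were grown in 96-well plates and treated with compound for 48 hours. At the GI50, growth is halved. TGI denotes the concentration required for complete inhibition of growth.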 Where a SMILES comes first, the peptide text is derived from it. [ ]: non-standard residue; d: D form. 2Nal = N[CH](Cc1ccc2ccccc2c1)C(=O)O
What was measured:
Test in all cases: NCI-60 cell line screen, 48 h
[1] = system: COLO 205 colon
[2] = system: SNB-78 CNS
[3] = system: HT29 colon
[4] = system: NCI-H522 lung
[5] = system: NCI-H23 lung
[6] = system: SNB-19 CNS
[7] = system: LOX IMVI melanoma
[8] = system: DMS 273 small cell lung
[9] = system: DMS 114 small cell lung
[10] = system: XF 498 CNS

Structure (SMILES)	GI50 [1] [µM]	TGI [1] [µM]	GI50 [2] [µM]	TGI [2] [µM]	GI50 [3] [µM]	TGI [3] [µM]	GI50 [4] [µM]	TGI [4] [µM]	GI50 [5] [µM]	TGI [5] [µM]	GI50 [6] [µM]	TGI [6] [µM]	GI50 [7] [µM]	TGI [7] [µM]	GI50 [8] [µM]	TGI [8] [µM]	GI50 [9] [µM]	TGI [9] [µM]	GI50 [10] [µM]	TGI [10] [µM]
CCC[CH2][Sn]([CH2]CCC)([O]C(=O)c1cc(F)cc(F)c1)[O][Sn]([CH2]CCC)([CH2]CCC)[O]C(=O)c1cc(F)cc(F)c1	1.05	2.34	0.584	2.29	1.91	4.09	0.0538	0.185	0.606	1.88	1.52	2.86	1.05	2.35	1.23	2.47	0.379	1.53	1.4	2.71
OC1CCC[C@@H]1Sc1ccccc1 (stereo partly drawn)	–	> 100	–	> 100	–	–	–	–	–	> 100	–	> 100	–	> 100	–	> 100	–	> 100	–	> 100
CCOC(=O)c1c2cccccc2n2c(=O)cc(C)nc12	–	> 100	–	> 100	–	> 100	–	> 100	–	> 100	–	> 100	–	> 100	–	> 100	–	–	–	–
O=C(O)CCSC(=S)Nc1cccc(F)c1	–	> 100	–	> 100	–	> 100	–	–	–	> 100	–	> 100	–	42.6	–	> 100	–	51.8	–	–
O=C(O)CCSC(=O)Nc1ccccc1Cl	–	> 100	–	> 100	–	> 100	–	–	–	> 100	–	> 100	–	> 100	–	> 100	–	> 100	–	> 100
COC(=O)C(=O)C(C(=O)C=C(C)C)C(=O)C(=O)Nc1nc2ccc([N+](=O)[O-])cc2s1 (stereo not drawn)	–	> 100	–	> 100	–	> 100	–	78.9	–	> 100	–	> 100	–	> 100	–	> 100	–	> 100	–	–
Cc1ccc(NC(=O)CC/C(CC(=O)C(C)(C)C)=N\Nc2ccc([N+](=O)[O-])cc2[N+](=O)[O-])cc1C	–	> 100	–	> 100	–	> 100	–	–	–	> 100	–	> 100	–	97.2	–	–	–	> 100	–	–
COc1cc(/C=C\c2ccc(OC(C)=O)cc2)cc(OC)c1OC	–	94.2	–	84.1	–	> 100	–	> 100	–	13.2	–	> 100	–	–	–	> 100	–	> 100	–	82.9
COc1cc(CC(C(=O)O)C(=O)O)c(OC)cc1CC(C(=O)O)C(=O)O	–	> 100	–	> 100	–	> 100	–	> 100	–	> 100	–	> 100	–	> 100	–	> 100	–	> 100	–	> 100
CC(C)C(NC(=O)C(CCCCN)NC(=O)C(Cc1c[nH]c2ccccc12)NC(=O)C(Cc1ccc(O)cc1)NC(=O)C(CS)NC(=O)C(N)Cc1ccc2ccccc2c1)C(=O)NC(CS)C(=O)NC(C(N)=O)C(C)O (stereo not drawn) (H-[2Nal]CYWKVCT-NH2; configuration not given here)	> 100	> 100	–	23.2	> 100	> 100	–	> 12.5	> 100	> 100	–	> 100	–	> 12.5	–	> 100	–	> 100	–	> 100
CC1=C2[C@H](c3ccccc3)C3C=CC2(c2ccccc23)N(C(=O)C(c2ccccc2)c2ccccc2)C1=O (stereo partly drawn)	–	> 100	–	–	–	> 100	–	–	–	> 100	–	> 100	–	> 100	–	> 100	–	> 100	–	> 100
COC(=O)C(C(=O)C(=O)Nc1ccc(OC)cc1[N+](=O)[O-])c1nc2cc(C)c(C)cc2[nH]c1=O (stereo not drawn)	–	> 100	–	> 100	–	> 100	–	> 100	–	> 100	–	> 100	–	> 100	–	–	–	> 100	–	–
COCOCC[C@@H]1CC=CC(NC(=O)OCc2ccccc2)C1/C=C/C(=O)CCC1OCCO1 (stereo partly drawn)	–	37.9	–	> 100	–	> 100	–	34.7	–	97.8	–	> 100	–	34	–	> 59.1	–	86.5	–	> 100
C/C(CCn1[nH]c(=O)ccc1=O)=N\Nc1ccc([N+](=O)[O-])cc1[N+](=O)[O-]	–	–	–	> 100	–	> 100	–	–	–	> 100	–	> 100	–	> 100	–	> 100	–	> 100	–	> 100
CCCCCCCCCOC(=S)NCCCCC	–	–	–	> 100	–	63.4	–	46.6	–	68.3	–	> 100	–	29.4	–	58.3	–	47.4	–	–
CCOC(=O)NC(=O)c1cn(CCN2CCNCC2)c(=O)[nH]c1=O	–	> 100	–	> 100	–	> 100	–	> 100	–	> 100	–	> 100	–	> 100	–	–	–	> 100	–	> 100
COc1ccc(/C=c2/sc3n(c2=O)NC(c2ccc(Cl)cc2)NN=3)cc1 (stereo not drawn)	–	> 100	–	> 100	–	> 100	–	> 100	–	> 100	–	> 100	–	> 100	–	> 100	–	> 100	–	> 100
CC(=O)O/N=C(Cl)/C(Cl)=N/OC(C)=O	–	–	–	> 100	–	> 100	–	> 100	–	> 100	–	> 100	–	> 100	–	> 100	–	> 100	–	> 100
Cn1nc(-c2ccccc2)c(C(=O)/C=C/c2ccc(F)cc2)c(N2CCOCC2)c1=O	–	34.6	–	–	–	30.2	–	36.4	–	–	–	31.8	–	75.4	–	53	–	33.4	–	42.7
COc1cc2c(cc1OC)c1c(OC)c(OC)cc3c1c1c2sc(=S)n1CC3	–	> 100	–	> 100	–	> 100	–	34.6	–	> 100	–	> 100	–	> 100	–	> 100	–	98.1	–	–
